Source: ChEMBL document CHEMBL1125697, “Synthesis and pharmacological examination of 1-(3-methoxy-4-methylphenyl)-2-aminopropane and 5-methoxy-6-methyl-2-aminoindan: similarities to 3,4-(methylenedioxy)methamphetamine (MDMA)” (J Med Chem, 1991)

Tests used:
Rattus norvegicus [1] = assay: Momoamine and metabolic levels observed 1 week following acute dosing against at a dose of 20 mg/kg Hippocampus NE; type: ADME, organism-based; parameters: dose 20 mg/kg; conditions: in vivo, 168 h
Rattus norvegicus [2] = assay: Momoamine and metabolic levels observed 1 week following acute dosing against at a dose of 20 mg/kg Frontal cortex DOPAC; type: ADME, organism-based; parameters: dose 20 mg/kg; conditions: in vivo, 168 h
Rattus norvegicus [3] = assay: Percentage of non disrupted rats that selected the drug lever, when given at a dose of 2.00 mg/kg; type: functional
[4] = biological target: Sodium-dependent serotonin transporter (Rattus norvegicus) (UniProt P31652); assay: Number of uptake sites for [3H]paroxetine receptor binding after sub-acute dosing against Frontal cortex; type: tissue-based
Chain of Sodium-dependent serotonin transporter (Rattus norvegicus) (P31652 whole entry): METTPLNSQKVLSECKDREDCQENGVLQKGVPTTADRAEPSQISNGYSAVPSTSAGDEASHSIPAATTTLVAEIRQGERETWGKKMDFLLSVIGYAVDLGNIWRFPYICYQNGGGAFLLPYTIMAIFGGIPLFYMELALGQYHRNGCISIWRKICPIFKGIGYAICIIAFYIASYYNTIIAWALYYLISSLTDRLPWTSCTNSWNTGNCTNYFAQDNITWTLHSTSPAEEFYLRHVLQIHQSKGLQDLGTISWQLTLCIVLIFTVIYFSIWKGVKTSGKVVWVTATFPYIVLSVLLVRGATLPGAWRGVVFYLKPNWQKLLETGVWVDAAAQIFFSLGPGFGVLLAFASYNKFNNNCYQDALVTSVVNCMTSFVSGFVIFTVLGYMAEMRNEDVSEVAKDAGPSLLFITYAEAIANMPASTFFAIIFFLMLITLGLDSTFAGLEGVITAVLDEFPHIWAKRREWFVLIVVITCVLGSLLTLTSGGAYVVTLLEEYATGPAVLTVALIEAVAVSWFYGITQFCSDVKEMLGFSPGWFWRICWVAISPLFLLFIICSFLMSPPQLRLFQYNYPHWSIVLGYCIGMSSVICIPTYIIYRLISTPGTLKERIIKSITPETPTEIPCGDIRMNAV

Rattus norvegicus [5] = assay: Momoamine and metabolic levels observed 2 weeks following sub-acute dosing against Hippocampus NE; type: ADME, organism-based; conditions: in vivo, 336 h
Rattus norvegicus [6] = assay: Momoamine and metabolic levels observed at 3 hr postdrug against, at a dose of 20 mg/kg Hippocampus NE; type: ADME, organism-based; parameters: dose 20 mg/kg; conditions: in vivo
Rattus norvegicus [7] = assay: Momoamine and metabolic levels observed at 3 hr postdrug against, at a dose of 20 mg/kg Frontal cortex DA; type: ADME, organism-based; parameters: dose 20 mg/kg; conditions: in vivo
Rattus norvegicus [8] = assay: Percentage of non disrupted rats that selected the drug lever, when given at a dose of 1.00 mg/kg; type: functional
Rattus norvegicus [9] = assay: Percentage of non disrupted rats that selected the drug lever, when given at a dose of 1.00 mg/kg in […]-Trained rats; type: functional
Rattus norvegicus [10] = assay: Momoamine and metabolic levels observed 1 week following acute dosing at a dose of 10 mg/kg Frontal cortex DA; type: ADME, organism-based; parameters: dose 10 mg/kg; conditions: in vivo, 168 h
Rattus norvegicus [11] = species: Rattus norvegicus; assay: Compound was evaluated for the uptake inhibition of [3H]-5-HT in rats; type: functional
Rattus norvegicus [12] = assay: Momoamine and metabolic levels observed 1 week following acute dosing against at a dose of 20 mg/kg Frontal cortex 5-HIAA; type: ADME, organism-based; parameters: dose 20 mg/kg; conditions: in vivo, 168 h
Rattus norvegicus [13] = assay: Momoamine and metabolic levels observed 1 week following acute dosing against at a dose of 20 mg/kg Hippocampus 5-HIAA; type: ADME, organism-based; parameters: dose 20 mg/kg; conditions: in vivo, 168 h
Rattus norvegicus [14] = assay: Percentage of non disrupted rats that selected the drug lever, when given at a dose of 2.00 mg/kg in […]-Trained rats; type: functional
Rattus norvegicus [15] = assay: Momoamine and metabolic levels observed 1 week following acute dosing at a dose of 10 mg/kg Frontal cortex NE; type: ADME, organism-based; parameters: dose 10 mg/kg; conditions: in vivo, 168 h
Rattus norvegicus [16] = assay: Momoamine and metabolic levels observed 1 week following acute dosing at a dose of 10 mg/kg Frontal cortex DOPAC; type: ADME, organism-based; parameters: dose 10 mg/kg; conditions: in vivo, 168 h
Rattus norvegicus [17] = assay: Momoamine and metabolic levels observed 1 week following acute dosing against at a dose of 20 mg/kg Frontal cortex NE; type: ADME, organism-based; parameters: dose 20 mg/kg; conditions: in vivo, 168 h
Rattus norvegicus [18] = assay: Momoamine and metabolic levels observed 2 weeks following sub-acute dosing against Frontal cortex DOPAC; type: ADME, organism-based; conditions: in vivo, 336 h
Rattus norvegicus [19] = assay: Momoamine and metabolic levels observed 2 weeks following sub-acute dosing against Frontal cortex HVA; type: ADME, organism-based; conditions: in vivo, 336 h
Rattus norvegicus [20] = assay: Momoamine and metabolic levels observed 2 weeks following sub-acute dosing against Frontal cortex 5-HIAA; type: ADME, organism-based; conditions: in vivo, 336 h
Rattus norvegicus [21] = assay: Momoamine and metabolic levels observed 2 weeks following sub-acute dosing against Hippocampus 5-HIAA; type: ADME, organism-based; conditions: in vivo, 336 h
Rattus norvegicus [22] = assay: Momoamine and metabolic levels observed 2 weeks following sub-acute dosing against Hippocampus 5-HT; type: ADME, organism-based; conditions: in vivo, 336 h
Rattus norvegicus [23] = assay: Momoamine and metabolic levels observed 1 week following acute dosing against at a dose of 10 mg/kg Hippocampus NE; type: ADME, organism-based; parameters: dose 10 mg/kg; conditions: in vivo, 168 h
Rattus norvegicus [24] = assay: Momoamine and metabolic levels observed 2 weeks following sub-acute dosing against Frontal cortex DA; type: ADME, organism-based; conditions: in vivo, 336 h
Rattus norvegicus [25] = assay: Momoamine and metabolic levels observed 1 week following acute dosing against at a dose of 20 mg/kg Frontal cortex 5-HT; type: ADME, organism-based; parameters: dose 20 mg/kg; conditions: in vivo, 168 h
Rattus norvegicus [26] = assay: Momoamine and metabolic levels observed 1 week following acute dosing against at a dose of 20 mg/kg Frontal cortex HVA; type: ADME, organism-based; parameters: dose 20 mg/kg; conditions: in vivo, 168 h
Rattus norvegicus [27] = assay: Percentage of non disrupted rats that selected the drug lever, when given at a dose of 0.25 mg/kg; type: functional
Rattus norvegicus [28] = assay: Percentage of non disrupted rats that selected the drug lever, when given at a dose of 1.00 mg/kg in S-Amphetamine-Trained rats; type: functional
Rattus norvegicus [29] = assay: Effective dose was evaluated for drug discrimination in I-trained rats, when given at a dose of 0.25 mg/kg; type: functional
Rattus norvegicus [30] = assay: Percentage of non disrupted rats that selected the drug lever, when given at a dose of 0.5 mg/kg in S-Amphetamine-Trained rats; type: functional
Rattus norvegicus [31] = assay: Momoamine and metabolic levels observed at 3 hr postdrug against, at a dose of 20 mg/kg Frontal cortex HVA; type: ADME, organism-based; parameters: dose 20 mg/kg; conditions: in vivo
Rattus norvegicus [32] = assay: Momoamine and metabolic levels observed 1 week following acute dosing against at a dose of 20 mg/kg Frontal cortex DA; type: ADME, organism-based; parameters: dose 20 mg/kg; conditions: in vivo, 168 h
Rattus norvegicus [33] = assay: Momoamine and metabolic levels observed 1 week following acute dosing against at a dose of 20 mg/kg Hippocampus 5-HT; type: ADME, organism-based; parameters: dose 20 mg/kg; conditions: in vivo, 168 h
Rattus norvegicus [34] = assay: Momoamine and metabolic levels observed 1 week following acute dosing at a dose of 10 mg/kg Frontal cortex HVA; type: ADME, organism-based; parameters: dose 10 mg/kg; conditions: in vivo, 168 h
Rattus norvegicus [35] = assay: Momoamine and metabolic levels observed at 3 h postdrug against, at a dose of 20 mg/kg Hippocampus 5-HT; type: ADME, organism-based; parameters: dose 20 mg/kg; conditions: in vivo
[36] = biological target: Sodium-dependent serotonin transporter (Rattus norvegicus) (UniProt P31652); assay: Number of uptake sites for [3H]paroxetine receptor binding after sub-acute dosing against Hippocampus
Rattus norvegicus [37] = assay: Momoamine and metabolic levels observed 1 week following acute dosing at a dose of 10 mg/kg Frontal cortex 5-HT; type: ADME, organism-based; parameters: dose 10 mg/kg; conditions: in vivo, 168 h
Rattus norvegicus [38] = assay: Percentage of non disrupted rats that selected the drug lever, when given at a dose of 2.50 mg/kg in […]-Trained rats; type: functional; conditions: dose 2.5 mg/kg
Rattus norvegicus [39] = assay: Momoamine and metabolic levels observed 1 week following acute dosing at a dose of 10 mg/kg Frontal cortex 5-HIAA; type: ADME, organism-based; parameters: dose 10 mg/kg; conditions: in vivo, 168 h
Rattus norvegicus [40] = assay: Momoamine and metabolic levels observed 2 weeks following sub-acute dosing against Frontal cortex 5-HT; type: ADME, organism-based; conditions: in vivo, 336 h
Rattus norvegicus [41] = assay: Effective dose was evaluated for drug discrimination in I-trained rats, when given at a dose of 0.25 micro mol/kg; type: functional
Rattus norvegicus [42] = assay: Momoamine and metabolic levels observed 1 week following acute dosing at a dose of 10 mg/kg Hippocampus 5-HIAA; type: ADME, organism-based; parameters: dose 10 mg/kg; conditions: in vivo, 168 h
Rattus norvegicus [43] = assay: Momoamine and metabolic levels observed at 3 hr postdrug against, at a dose of 20 mg/kg Frontal cortex 5-HIAA; type: ADME, organism-based; parameters: dose 20 mg/kg; conditions: in vivo
Rattus norvegicus [44] = assay: Momoamine and metabolic levels observed at 3 hr postdrug against, at a dose of 20 mg/kg Hippocampus 5-HIAA; type: ADME, organism-based; parameters: dose 20 mg/kg; conditions: in vivo
Rattus norvegicus [45] = assay: Momoamine and metabolic levels observed at 3 hr postdrug against, at a dose of 20 mg/kg Frontal cortex NE; type: ADME, organism-based; parameters: dose 20 mg/kg; conditions: in vivo
Rattus norvegicus [46] = assay: Momoamine and metabolic levels observed 2 weeks following sub-acute dosing against Frontal cortex NE; type: ADME, organism-based; conditions: in vivo, 336 h
Rattus norvegicus [47] = assay: Percentage of non disrupted rats that selected the drug lever, when given at a dose of 0.25 mg/kg in S-Amphetamine-Trained rats; type: functional
Rattus norvegicus [48] = assay: Momoamine and metabolic levels observed at 3 hr postdrug against, at a dose of 20 mg/kg Frontal cortex 5-HT; type: ADME, organism-based; parameters: dose 20 mg/kg; conditions: in vivo
Rattus norvegicus [49] = assay: Momoamine and metabolic levels observed at 3 hr postdrug against, at a dose of 20 mg/kg Frontal cortex DOPAC; type: ADME, organism-based; parameters: dose 20 mg/kg; conditions: in vivo
Rattus norvegicus [50] = assay: Momoamine and metabolic levels observed 1 week following acute dosing against at a dose of 10 mg/kg Hippocampus 5-HT; type: ADME, organism-based; parameters: dose 10 mg/kg; conditions: in vivo, 168 h
Rattus norvegicus [51] = assay: Percentage of non disrupted rats that selected the drug lever, when given at a dose of 0.5 mg/kg; type: functional
Rattus norvegicus [52] = assay: Effective dose was evaluated for drug discrimination in I-trained rats, when given at a dose of 1.16 micro mol/kg; type: functional
Rattus norvegicus [53] = assay: Percentage of non disrupted rats that selected the drug lever, when given at a dose of 0.5 mg/kg in […]-Trained rats; type: functional

SMILES: COc1ccc2c(c1C)CC(N)C2 (centres undefined)
- Metabolite level (Rattus norvegicus [1]): 583
- Metabolite level (Rattus norvegicus [2]): 35
- SDL (Rattus norvegicus [3]): 100%
- No. of uptake sites [4]: 13.6
- Metabolite level (Rattus norvegicus [5]): 716
- Metabolite level (Rattus norvegicus [6]): 646
- Metabolite level (Rattus norvegicus [7]): 113
- SDL (Rattus norvegicus [8]): 75%
- SDL (Rattus norvegicus [9]): 13%
- Metabolite level (Rattus norvegicus [10]): 88
- IC50 (Rattus norvegicus [11]): 212 nM
- Metabolite level (Rattus norvegicus [12]): 240
- Metabolite level (Rattus norvegicus [13]): 476
- SDL (Rattus norvegicus [14]): 38%
- Metabolite level (Rattus norvegicus [15]): 414
- Metabolite level (Rattus norvegicus [16]): 36
- Metabolite level (Rattus norvegicus [17]): 509
- Metabolite level (Rattus norvegicus [18]): 54
- Metabolite level (Rattus norvegicus [19]): 59
- Metabolite level (Rattus norvegicus [20]): 256
- Metabolite level (Rattus norvegicus [21]): 518
- Metabolite level (Rattus norvegicus [22]): 434
- Metabolite level (Rattus norvegicus [23]): 633
- Metabolite level (Rattus norvegicus [24]): 92
- Metabolite level (Rattus norvegicus [25]): 316
- Metabolite level (Rattus norvegicus [26]): 65
- SDL (Rattus norvegicus [27]): 13%
- SDL (Rattus norvegicus [28]): 50%
- ED50 (Rattus norvegicus [29]; Rattus norvegicus, read-out: ED50): 0.81 mg/kg
- ED50 (Rattus norvegicus [29]; dose 0.25 mg/kg): 0.56 mg/kg
- SDL (Rattus norvegicus [30]): 33%
- Metabolite level (Rattus norvegicus [31]): 112
- Metabolite level (Rattus norvegicus [32]): 81
- Metabolite level (Rattus norvegicus [33]): 462
- Metabolite level (Rattus norvegicus [34]): 74
- Metabolite level (Rattus norvegicus [35]): 256
- No. of uptake sites [36]: 15.6
- Metabolite level (Rattus norvegicus [37]): 312
- SDL (Rattus norvegicus [38]): 50%
- Metabolite level (Rattus norvegicus [39]): 210
- Metabolite level (Rattus norvegicus [40]): 415
- ED50 (Rattus norvegicus [41]): 2.63 µmol/kg
- Metabolite level (Rattus norvegicus [42]): 434
- Metabolite level (Rattus norvegicus [43]): 146
- Metabolite level (Rattus norvegicus [44]): 272
- Metabolite level (Rattus norvegicus [45]): 558
- Metabolite level (Rattus norvegicus [46]): 568
- SDL (Rattus norvegicus [47]): 17%
- Metabolite level (Rattus norvegicus [48]): 148
- Metabolite level (Rattus norvegicus [49]): 40
- Metabolite level (Rattus norvegicus [50]): 312
- SDL (Rattus norvegicus [51]): 25%
- ED50 (Rattus norvegicus [52]): 3.77 µmol/kg
- SDL (Rattus norvegicus [53]): 11%
